From paper PMC4728427, “Mechanism of allosteric activation of TMEM16A/ANO1 channels by a commonly used chloride channel blocker” (British Journal of Pharmacology, 2016)
Like-named read-outs stand apart in the source and are kept apart here.

Target: T1, Mouse TMEM16A (Mus musculus, UniProt Q8BHY3)
T1 construct: expressed in transfected cells; host or cells: HEK-293T
T1 sequence (Q8BHY3 1-960): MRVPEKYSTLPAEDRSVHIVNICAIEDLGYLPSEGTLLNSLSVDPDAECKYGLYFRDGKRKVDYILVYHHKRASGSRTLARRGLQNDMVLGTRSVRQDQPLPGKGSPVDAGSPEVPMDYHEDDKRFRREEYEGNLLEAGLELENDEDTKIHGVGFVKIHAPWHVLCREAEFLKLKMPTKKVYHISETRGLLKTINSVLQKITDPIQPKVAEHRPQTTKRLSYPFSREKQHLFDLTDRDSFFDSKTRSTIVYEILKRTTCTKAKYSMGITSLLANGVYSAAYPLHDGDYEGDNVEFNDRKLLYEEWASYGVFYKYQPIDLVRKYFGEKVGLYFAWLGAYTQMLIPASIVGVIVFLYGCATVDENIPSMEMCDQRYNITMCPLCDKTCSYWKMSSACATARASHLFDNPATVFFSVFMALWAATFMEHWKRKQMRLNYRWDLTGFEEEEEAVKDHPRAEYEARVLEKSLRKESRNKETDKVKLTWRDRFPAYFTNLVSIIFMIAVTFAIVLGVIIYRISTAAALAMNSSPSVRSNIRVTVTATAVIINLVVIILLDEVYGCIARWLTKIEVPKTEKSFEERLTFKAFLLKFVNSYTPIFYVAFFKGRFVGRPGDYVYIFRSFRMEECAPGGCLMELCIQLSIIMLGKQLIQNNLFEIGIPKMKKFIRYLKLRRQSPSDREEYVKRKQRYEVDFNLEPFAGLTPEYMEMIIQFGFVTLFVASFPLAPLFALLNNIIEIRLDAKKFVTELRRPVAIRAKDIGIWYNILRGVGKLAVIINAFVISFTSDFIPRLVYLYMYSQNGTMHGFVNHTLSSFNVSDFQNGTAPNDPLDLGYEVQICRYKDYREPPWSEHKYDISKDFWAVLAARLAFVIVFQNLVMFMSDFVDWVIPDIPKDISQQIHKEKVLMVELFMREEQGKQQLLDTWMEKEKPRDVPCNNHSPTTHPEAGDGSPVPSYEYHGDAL
Experiment: Time-course of current block analysed by Langmuir formalism (kon, koff), 12.5 μM [Ca2+]i
Format: cell-based
Conditions: for Ki: read-out: Ki calculated as koff/kon
Description: To investigate the precise mechanism by which extracellular A9C inhibits TMEM16A channels, macroscopic whole‐cell currents were recorded in the presence of 12.5 μM [Ca^2+]i and in response to 250 ms steps to various V m test pulse from a holding V m of −70 mV. The negative holding V m was used to prevent channel block before the test pulse was elicited. […] The time‐course of this decrease was described by a single‐exponential function characterized by a time constant τ B. The extent of the decrease in current was measured for various [A9C]ext and various V m test pulse and then plotted relative to the current measured in the absence of A9C (I 0) (Figure 3B). The γ values were close to 1 at each V m. In contrast, K i decreased as the V m was increased (Figure 3C). […] Thus, A9C appeared to block TMEM16A channels according to a Woodhull mechanism, consistent with a single A9C molecule blocking the channel pore.
The K i at various V m can also be estimated from analysis of the time‐course of current inhibition at various V m (see Supporting Information for details). K i estimated from this analysis were plotted against the V m in Figure 3C (open symbols). It is clear that K i estimated in this way is similar to the K i estimated from the Hill fit of the dose–response curves (filled symbols). […]
SUPPLEMENTARY INFORMATION
TMEM16A currents were measured with the whole-cell or inside-out configuration of
the patch-clamp technique using an Axon 200B amplifier (Molecular Devices, USA)
controlled with GE-pulse software (http://users.ge.ibf.cnr.it/pusch/programs-mik.htm).
Currents were filtered at 2-5 kHz and sampled at 10 kHz, unless stated otherwise.
Pipettes were prepared from borosilicate glass capillary tubes (Harvard Apparatus,
USA) using a Narishige PC-10 pipette puller (Narishige, Japan). Pipette tip diameter
yielded a resistance of 2.2 to 2.8 MΩ in the working solutions. The bath was grounded
through a 3 M KCl agar bridge connected to a Ag-AgCl reference electrode. In whole-
cell recordings, the series resistance was usually compensated by ≥70 % to achieve a
maximal effective series resistance generally lower than ~5 MΩ. To allow for
equilibration of the pipette solution with the cell interior, recordings started 5 min after
establishing the whole-cell configuration (Manoury, Tamuleviciute & Tammaro, 2010).
Experiments were conducted at 20-22 °C. The cell capacitance was assessed by
measuring the area beneath a capacitive transient elicited by a 10 mV step or via the
cell capacity compensation circuit of the amplifier.
Estimation of Ki at various Vm using the Langmuir formalism
Detailed kinetic analysis of TMEM16A channel activity is likely to require complex
models to account for the effects of Ca2+ and voltage on channel gating (Hartzell,
Putzier & Arreola, 2005). However, a simplified two-state kinetic scheme may be
applicable in conditions in which high [Ca2+]i is maintained to maximally activate the
TMEM16A channel. Under these conditions, and assuming that a molecule of A9C
binding into the pore of a TMEM16A channel results in the complete block of Cl- fluxes,
the Langmuir formalism applies:
Where O represents the conductive state and OB(A9C) is the A9C-blocked state. kon and
koff are the association and dissociation constant, respectively and Ki = koff/kon is the
apparent equilibrium dissociation constant.
The scheme (I) refers to the following differential equations: […]
(1 picture or pasted object on this page, not shown here)
Where O and OB(A9C) describe the probability of being open (unliganded) or blocked,
Thus, in the presence of a fixed [A9C]ext, when the Vm is stepped to a defined test-pulse
Where O∞ is the value of O(t) at the steady state and O(0) is the value of O(t) at the
beginning of the test pulse while τB is the time constant.
fitted with supplementary equation 3 and the resulting τB-1 plotted versus [A9C]ext
(Suppl. Fig.2). Supplementary equation 5 was used to fit the τB-1 obtained at a given Vm, […]

koff (Vm 20 mV): 94 ± 5 s⁻¹ | Ki (Vm 20 mV): 168 µM | koff (Vm 40 mV): 71 ± 9 s⁻¹ | Ki (Vm 40 mV): 104 µM | koff (Vm 60 mV): 49 ± 13 s⁻¹ | Ki (Vm 60 mV): 62 µM | koff (Vm 80 mV): 34 ± 9 s⁻¹ | Ki (Vm 80 mV): 38 µM | koff (Vm 100 mV): 12 ± 25 s⁻¹ | Ki (Vm 100 mV): 12 µM | koff (Vm 120 mV): 21 ± 17 s⁻¹ | Ki (Vm 120 mV): 19 µM
Structure (SMILES): O=C(O)c1c2ccccc2cc2ccccc12 [A9C, Anthracene‐9‐carboxylic acid]
